Like-named read-outs stand apart in the source and are kept apart here.
What was measured:
Assay type in all cases: cell-based
[1] = system: Pseudomonas aeruginosa ATTC27853; test: Broth microdilution MIC in Mueller Hinton broth
[2] = system: Bacillus cereus ATCC14579; test: Broth microdilution MIC in Mueller Hinton broth
[3] = system: Escherichia coli ATTC25922; test: Broth microdilution MIC in Mueller Hinton broth
[4] = system: Enterococcus faecalis ATCC29212; test: Broth microdilution MIC in Mueller Hinton broth
[5] = system: Staphylococcus aureus Clinical/MRSA; test: Broth microdilution MIC in Mueller Hinton broth; conditions: for MIC: Staphylococcus aureus, MRSA, read-out: Minimum Inhibitory Concentration (MIC) Staphylococcus aureus Clinical/MRSA
[6] = system: Staphylococcus aureus ATCC 33591; conditions: MIC in MHB vs MIC with 10 µM CCCP, S. aureus ATCC 33591
Method: Bacterial susceptibility toward (±)3-amidoquinuclidine quaternary ammonium compounds was evaluated in the presence of an ATP synthesis inhibitor carbonyl cyanide 3-chlorophenylhydrazone (CCCP) (Sigma Aldrich). The minimum inhibitory concentration (MIC) of CCCP against Staphylococcus aureus ATCC 33591 (MRSA) was established before the experiment. The overnight culture of Staphylococcus aureus ATCC 33591 was diluted in tempered Mueller Hinton broth (MHB) and cultivated in the orbital shaker at 37 °C and 220 rpm. When the culture reached the preexponential phase of growth (OD600 = 0.3–0.5), it was diluted to a final concentration of 5 × 10^5 CFU/mL in MHB containing 10 µM CCCP. A total of 50 µL of prepared cell suspension was pipetted into a 96-well plate containing twofold serial dilutions of tested compounds in MHB with CCCP at a final concentration of 10 µM. Plates were incubated overnight, and the MIC reduction of tested compounds in the presence of 10 µM CCCP was recorded the following day.

[7] = system: Listeria monocytogenes ATCC7644; test: Broth microdilution MIC in Mueller Hinton broth
[8] = system: Staphylococcus aureus ATCC33591; test: Broth microdilution MIC in Mueller Hinton broth
[9] = system: Salmonella enterica food isolate; test: microbe, parasite or virus in culture; conditions: MHB, read-out: Minimum Inhibitory Concentration (MIC) Salmonella enterica food isolate
[10] = system: Staphylococcus aureus ATCC25923; test: Broth microdilution MIC in Mueller Hinton broth
[11] = system: Staphylococcus aureus ATCC 25923; test: MIC in Dulbecco's Modified Eagle Medium (DMEM); conditions: ATCC25923, read-out: MIC DMEM
Method: The overnight culture of Staphylococcus aureus ATCC 25923 was diluted in fresh Mueller Hinton broth (MHB) and placed in an orbital shaker incubator (Gallenkamp, Cambridge, UK) at 37 °C and 220 rpm. Once the culture reached the exponential growth phase (OD600 = 0.3–0.5), cells were centrifuged (Heraeus, Biofuge primo R, Hanau, Germany) at room temperature at a speed of 4000× g. The cell pellet was resuspended in tempered Dulbecco’s Modified Eagle Medium (DMEM) to a final concentration of 5 × 10^5 CFU/mL. Then, 50 µL of as-prepared cells were added to a 96-well plate containing twofold serial dilutions of tested compounds in DMEM medium in the range of concentrations from 125 µM to 0.12 µM. The minimum inhibitory concentration (MIC) was visually assessed the next day. The MIC was determined as the lowest concentration of the substance at which no apparent bacterial growth was seen.

[12] = system: Staphylococcus aureus ATCC 25923 biofilm; test: Biofilm inhibition assay (crystal violet); conditions: ATCC25923, 12.5 μg mL−1, 48 h
Method: Therefore, we investigated the antibiofilm activity of the new 3-amidoquinuclidine QACs against the biofilm-forming pathogen S. aureus ATCC 25923, which causes opportunistic infections of various tissues in humans. […] Antibiofilm activity was evaluated at four different concentrations (12.5, 25, 50, and 100 μ g mL^−1), and as shown on the crystal violet heat map (CV) (Figure 3A), all compounds have the potential to inhibit biofilm formation, albeit at different concentrations.
Minimum biofilm inhibitory concentration (MBIC) was determined against Staphylococcus aureus ATCC 25923. Compounds were dissolved in MHB and serially diluted in 96-well plates with a final mass concentration ranging from 100 to 12.5 µg/mL. The exponentially grown culture (OD600 = 0.3–0.5) of S. aureus ATCC 25923 was diluted to a final concentration of 5 × 10^6 CFU/mL. Then, 50 µL of such prepared cell culture was added to the 96-well plates containing twofold dilutions of the compound to be tested. The plates were incubated for 48 h. After incubation, the broth over the biofilm was aspirated, and the plate with the biofilm was dried at 60 °C. […] Absorbance was measured at 595 nm in an optical reader. The percentage of biofilm formed was calculated by dividing the absorbance of the well containing the tested substance by the absorbance of the untreated bacterial cells and multiplying by 100.

[13] = system: Staphylococcus aureus ATCC 25923; test: MIC in cation-adjusted Mueller Hinton broth (CA-MHB); conditions: ATCC25923, read-out: MIC CA-MHB
Method: A representative bacterial strain, Staphylococcus aureus ATCC 25923, was grown overnight in Mueller Hinton broth (MHB). The following day, the culture was diluted in tempered MHB and allowed to grow at 37 °C with constant shaking of 220 rpm. Once the bacterial culture reached the exponential growth phase (OD600 = 0.3–0.5), it was diluted in the cation-adjusted Mueller Hinton broth (CA-MHB) containing MgCl2 (10 mM) to the final cell count of 5 × 10^5 CFU/mL. The previously prepared 96-well plate contained twofold serial dilutions of the compounds to be tested, dissolved in CA-MHB, in the concentrations range of 125 µM to 0.12 µM. Then, 50 µL of the bacterial cells diluted in CA-MHB was pipetted in each well of the plate and incubated overnight at 37 °C with constant shaking at 220 rpm. The next day, the minimum inhibitory concentration (MIC) was determined as the lowest concentration of the compound that prevented supposed bacterial growth in the wells. Visually determined results of antibacterial activity were confirmed by the addition of 20 µL 2-(4-iodophenyl)-3-(4-nitrophenyl)-5-phenyltetrazolium chloride (INT) reagent (6 mg/mL). The MIC value of a drug in CA-MHB containing NaCl (85 mM) was determined using the same experimental technique.

[14] = system: Staphylococcus aureus ATCC 25923; test: Time-resolved growth analysis
Method: The growth kinetic experiments were performed to further investigate the efficacy of the selected 3-amidoquinnuclidine candidates. The candidates from series 1 (QC14-Me, QC14-Ally, QC16-Me, and QC16-Ally) and series 3 (QBn-C12, QBn-C14, and QBn-C16) were incubated at MIC and ½ MIC for 350 min with an appropriate number of CFU of Staphylococcus aureus ATCC 25923 at 37 °C with shaking. Time-resolved growth analysis was performed along with the control, in which bacterial growth was monitored without the presence of the antibacterial agent.
Time-resolved growth analysis was performed in the microtiter plate reader (Bio-Tek EL808, Winooski, VT, USA) by incubating the selected antibacterial agent with Staphylococcus aureus ATCC 25923. The exponentially grown culture (OD600 = 0.3–0.5) of S. aureus ATCC 25923 was diluted to a final concentration of 5 × 10^4 CFU/mL. Then, 50 µL of such prepared cell culture was added to the 96-well plates containing the MIC or ½ MIC of the compound to be tested. The plates were incubated at 37 °C for 350 min in the microplate reader with shaking. OD600 was recorded at 10 min intervals. The results obtained represent the mean of two independent experiments performed in triplicate.

[15] = MHB, read-out: Minimum Inhibitory Concentration (MIC) Staphylococcus aureus ATCC25923
[16] = Pseudomonas aeruginosa, ATTC27853, read-out: Minimum Inhibitory Concentration (MIC) Pseudomonas aeruginosa ATTC27853
[17] = Bacillus cereus, ATCC14579, read-out: Minimum Inhibitory Concentration (MIC) Bacillus cereus ATCC14579
[18] = Escherichia coli, ATTC25922, read-out: Minimum Inhibitory Concentration (MIC) Escherichia coli ATTC25922
[19] = Enterococcus faecalis, ATCC29212, read-out: Minimum Inhibitory Concentration (MIC) Enterococcus faecalis ATCC29212
[20] = Listeria monocytogenes, ATCC7644, read-out: Minimum Inhibitory Concentration (MIC) Listeria monocytogenes ATCC7644
[21] = Staphylococcus aureus, ATCC33591, read-out: Minimum Inhibitory Concentration (MIC) Staphylococcus aureus ATCC33591
[22] = Staphylococcus aureus, ATCC25923, read-out: Minimum Inhibitory Concentration (MIC) Staphylococcus aureus ATCC25923

## CCCCCCCCCCCC[N+](C)(C)Cc1ccccc1.[Br-] [BAB, benzyldimethyldodecylammonium bromide, reference compound]
[1]; MHB, read-out: Minimum Inhibitory Concentration (MIC) Pseudomonas aeruginosa ATTC27853
  MIC: >125 µM
[2]; MHB, read-out: Minimum Inhibitory Concentration (MIC) Bacillus cereus ATCC14579
  MIC: 13 µM
[3]; MHB, read-out: Minimum Inhibitory Concentration (MIC) Escherichia coli ATTC25922
  MIC: 63 µM
[4]; MHB, read-out: Minimum Inhibitory Concentration (MIC) Enterococcus faecalis ATCC29212
  MIC: 15 µM
[5]; MHB
  Minimum Inhibitory Concentration (MIC) Staphylococcus aureus Clinical/MRSA: 25 µM
[6]
  Fold reduction in MIC: 32
[7]; MHB, read-out: Minimum Inhibitory Concentration (MIC) Listeria monocytogenes ATCC7644
  MIC: 10 µM
[8]; MHB, read-out: Minimum Inhibitory Concentration (MIC) Staphylococcus aureus ATCC33591
  MIC: 25 µM
[9]
  MIC: 50 µM
[10]; [15]
  MIC: 10 µM

## C=CC[N+]12CCC(CC1)C(NC(=O)CCCCCCCCCCCCC)C2 (stereo not shown) [QC14-Ally]
[1]; [16]
  MIC: > 125 µM
[11]
  MIC: 6 µM
[2]; [17]
  MIC: 25 µM
[3]; [18]
  MIC: 50 µM
[4]; [19]
  MIC: 15 µM
[5]
  MIC: 25 µM
[12]
  inhibition at 12.5 µg/mL: ~100%
[7]; [20]
  MIC: 8 µM
[8]; [21]
  MIC: 50 µM
[9]; Salmonella enterica
  MIC: > 125 µM
[10]; [15]
  MIC: 20 µM
[10]; [22]
  MIC: 20 µM
[13]
  MIC: 20 µM
[14]
  inhibition of bacterial growth at ½ MIC: unable to inhibit bacterial growth

## C=CC[N+]12CCC(CC1)C(NC(=O)CCCCCCCCCCCCCCC)C2 (stereo not shown) [QC16-Ally]
[1]; [16]
  MIC: > 125 µM
[11]
  MIC: 3 µM
[2]; [17]
  MIC: > 100 µM
[3]; [18]
  MIC: > 100 µM
[4]; [19]
  MIC: > 100 µM
[5]
  MIC: 31 µM
[12]
  inhibition at 12.5 µg/mL: ~100%
[7]; [20]
  MIC: 16 µM
[8]; [21]
  MIC: 25 µM
[9]; Salmonella enterica
  MIC: > 125 µM
[10]; [15]
  MIC: 15 µM
[10]; [22]
  MIC: 15 µM
[13]
  MIC: 15 µM
